Measured values as given in patent publication US12398154B2, “Azaquinazoline pan-KRas inhibitors” (Mirati Therapeutics, Inc., priority 2020, dated 2025).

Legend:
KRas G12D = KRas G12D (Homo sapiens, UniProt P01116, G12D); assay: biochemical;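 also: TR-FRET displacement binding assay on KRas, read after a one-hour incubation at room temperature, IC50 fitted from percent-of-control values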
Method: (§1) The ability of a compound to bind to KRas was measured using a TR-FRET displacement assay. […] After a 60-minute incubation at room temperature, the reaction was measured using a BMG LABTECH CLARIO star Plus via TR-FRET. […] The POC values were fit to a 4-parameter IC50 equation and the IC50 value reported.

KRas G12V = KRas G12V (Homo sapiens, UniProt P01116, G12V); assay: biochemical;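 also: KRas binding measured by TR-FRET displacement at room temperature, IC50 fitted from percent of control values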
Method: as §1

KRas G12R = KRas G12R (Homo sapiens, UniProt P01116, G12R); assay: biochemical;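 also: TR-FRET displacement assay of compound binding to KRas, read after one hour at room temperature, potency from a four-parameter fit of percent-of-control values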
Method: as §1

pERK in ASPC1 cells = assay: Inhibition of KRas phosphorylation of ERK (Cisbio HTRF pERK assay); details: Homo sapiens, ASPC1, read-out: Inhibition (HTRF IC50) of KRas-mediated Phosphorylation of ERK, AsPC-1
pERK in H727 cells = assay: as above; details: Homo sapiens, NCI-H727, read-out: Inhibition (HTRF IC50) of KRas-mediated Phosphorylation of ERK, H727
KRas G12A = KRas G12A (Homo sapiens, UniProt P01116, G12A); assay: biochemical;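 also: binding to KRas measured by TR-FRET displacement after one hour at room temperature, IC50 from a four-parameter fit of percent-of-control values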
Method: as §1

KRas G12S = KRas G12S (Homo sapiens, UniProt P01116, G12S); assay: biochemical;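 also: TR-FRET displacement binding to KRas, read after one hour incubation at room temperature, IC50 from four-parameter fit of percent of control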
Method: as §1

KRas G12C = KRas G12C (Homo sapiens, UniProt P01116, G12C); assay: biochemical;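 also: binding to KRas assessed by TR-FRET displacement after one hour incubation at room temperature, potency fitted from percent-of-control values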
Method: as §1

KRas WT = KRas WT (Homo sapiens, UniProt P01116); assay: biochemical;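 also: binding to KRas read as TR-FRET displacement after a one-hour room-temperature incubation, IC50 derived from percent-of-control values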
Sequence of KRas WT (P01116 1-169 isoform P01116-2): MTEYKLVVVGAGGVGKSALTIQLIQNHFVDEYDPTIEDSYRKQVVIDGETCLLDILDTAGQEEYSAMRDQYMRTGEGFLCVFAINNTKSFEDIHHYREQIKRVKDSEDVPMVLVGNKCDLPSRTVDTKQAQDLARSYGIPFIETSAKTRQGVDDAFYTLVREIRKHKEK
Method: as §1

Sequence of KRas G12C (P01116 1-169 isoform P01116-2 G12C): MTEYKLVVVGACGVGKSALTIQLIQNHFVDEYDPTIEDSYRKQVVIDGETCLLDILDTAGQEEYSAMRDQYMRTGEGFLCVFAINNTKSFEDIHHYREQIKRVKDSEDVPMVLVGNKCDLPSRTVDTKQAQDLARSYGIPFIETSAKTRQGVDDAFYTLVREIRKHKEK
Sequence of KRas G12R (P01116 1-169 isoform P01116-2 G12R): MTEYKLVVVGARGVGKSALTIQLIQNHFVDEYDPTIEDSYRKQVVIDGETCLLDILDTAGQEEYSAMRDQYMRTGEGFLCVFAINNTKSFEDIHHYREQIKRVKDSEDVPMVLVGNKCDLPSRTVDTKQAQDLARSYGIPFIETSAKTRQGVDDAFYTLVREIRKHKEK
Sequence of KRas G12V (P01116 1-169 isoform P01116-2 G12V): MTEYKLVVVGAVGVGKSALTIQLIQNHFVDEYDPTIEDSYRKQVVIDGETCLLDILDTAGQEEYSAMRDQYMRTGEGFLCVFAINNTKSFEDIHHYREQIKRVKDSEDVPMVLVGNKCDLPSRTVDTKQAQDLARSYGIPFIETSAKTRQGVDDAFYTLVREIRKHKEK
Sequence of KRas G12S (P01116 1-169 isoform P01116-2 G12S): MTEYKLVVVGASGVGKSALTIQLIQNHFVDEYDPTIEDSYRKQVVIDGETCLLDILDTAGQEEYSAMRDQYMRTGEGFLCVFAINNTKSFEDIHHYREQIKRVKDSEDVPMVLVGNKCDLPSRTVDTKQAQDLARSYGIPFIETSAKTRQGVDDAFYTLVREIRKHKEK
Sequence of KRas G12A (P01116 1-169 isoform P01116-2 G12A): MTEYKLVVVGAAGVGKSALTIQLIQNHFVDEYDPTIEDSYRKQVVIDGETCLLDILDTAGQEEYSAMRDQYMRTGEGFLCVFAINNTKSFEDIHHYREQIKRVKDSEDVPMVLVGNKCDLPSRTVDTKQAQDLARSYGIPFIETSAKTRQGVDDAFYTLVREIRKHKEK
Sequence of KRas G12D (P01116 1-169 isoform P01116-2 G12D): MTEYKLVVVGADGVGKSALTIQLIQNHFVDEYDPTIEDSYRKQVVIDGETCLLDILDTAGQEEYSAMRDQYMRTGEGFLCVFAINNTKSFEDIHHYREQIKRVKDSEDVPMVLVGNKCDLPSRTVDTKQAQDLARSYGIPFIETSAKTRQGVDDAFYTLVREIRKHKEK

Row | IC50 (KRas G12D) [nM] | IC50 (KRas G12V) [nM] | IC50 (KRas G12R) [nM] | IC50 (pERK in ASPC1 cells) [nM] | IC50 (pERK in H727 cells) [nM] | IC50 (KRas G12A) [nM] | IC50 (KRas G12S) [nM] | IC50 (KRas G12C) [nM] | IC50 (KRas WT) [nM] | SMILES
1 | 845 | 1260 | 2320 | ≥ 10000 | ≥ 10000 | – | – | – | – | Cc1cc2[nH]ncc2c(-c2ncc3c(N4CCCC5(CNC(=O)C5)C4)nc(OCC45CCCN4CCC5)nc3c2F)c1C (stereo not drawn) [Example 26, 7-(7-(5,6-dimethyl-1H-indazol-4-yl)-8-fluoro-2-((hexahydro-1H-pyrrolizin-7a-yl)methoxy)pyrido[4,3-d]pyrimidin-4-yl)-2,7-diazaspiro[4.5]decan-3-one]
2 | 38 | 12 | 32 | ≥ 10000 | ≥ 10000 | – | – | – | – | CCc1c(F)ccc2cc(O)cc(-c3ncc4c(N(C)CC5CC(=O)N5)nc(OC[C@@]56CCCN5C[C@H](F)C6)nc4c3F)c12 (stereo partly drawn) [Example 384]
3 | 105 | 191 | 421 | – | – | 176 | 167 | 157 | 163 | Cc1cccc2cccc(-c3ncc4c(N5CCCC6(CNC(=O)N6)C5)nc(OCC56CCCN5CCC6)nc4c3F)c12 (stereo not drawn) [Example 454, 7-(8-fluoro-2-((hexahydro-1H-pyrrolizin-7a-yl)methoxy)-7-(8-methylnaphthalen-1-yl)pyrido[4,3-d]pyrimidin-4-yl)-1,3,7-triazaspiro[4.5]decan-2-one]
4 | 6350 | 5150 | 4510 | – | – | 5990 | 8170 | 8470 | 11700 | Cc1cccc2cccc(-c3ncc4c(N5CCCC(c6nc[nH]n6)C5)nc(OCC56CCCN5CCC6)nc4c3F)c12 (stereo not drawn) [Example 455, 4-(3-(1H-1,2,4-triazol-3-yl)piperidin-1-yl)-8-fluoro-2-((hexahydro-1H-pyrrolizin-7a-yl)methoxy)-7-(8-methylnaphthalen-1-yl)pyrido[4,3-d]pyrimidine]
5 | 15 | 39 | 172 | – | – | 97 | 28 | 75 | 53 | C#Cc1cccc2cccc(-c3ncc4c(N5C[C@@H]6C(=O)NC(=O)[C@@H]6C5)nc(OCC56CCCN5CCC6)nc4c3F)c12 [Example 458, (3aR,6aS)-5-(7-(8-ethynylnaphthalen-1-yl)-8-fluoro-2-((hexahydro-1H-pyrrolizin-7a-yl)methoxy)pyrido[4,3-d]pyrimidin-4-yl)tetrahydropyrrolo[3,4-c]pyrrole-1,3(2H,3aH)-dione]
6 | 2320 | 1470 | 548 | – | – | 760 | 759 | 916 | 693 | NS(=O)(=O)CC1CCCN(c2nc(OCC34CCCN3CCC4)nc3c(F)c(-c4cccc5cccc(CF)c45)ncc23)C1 (stereo not drawn) [Example 460, 1-(1-(8-fluoro-7-(8-(fluoromethyl)naphthalen-1-yl)-2-((hexahydro-1H-pyrrolizin-7a-yl)methoxy)pyrido[4,3-d]pyrimidin-4-yl)piperidin-3-yl)methanesulfonamide]
7 | 880 | 350 | 418 | – | – | 321 | 311 | 430 | 493 | O=C1NC(=O)C2(CCCN(c3nc(OCC45CCCN4CCC5)nc4c(F)c(-c5cccc6cccc(CF)c56)ncc34)C2)N1 (stereo not drawn) [Example 462, 7-(8-fluoro-7-(8-(fluoromethyl)naphthalen-1-yl)-2-((hexahydro-1H-pyrrolizin-7a-yl)methoxy)pyrido[4,3-d]pyrimidin-4-yl)-1,3,7-triazaspiro[4.5]decane-2,4-dione]
8 | 6490 | 3060 | 1360 | – | – | 1550 | 1400 | 2150 | 2400 | NS(=O)(=O)CC1CCCN(c2nc(OCC34CCCN3CCC4)nc3c(F)c(-c4cccc5cccc(C(F)F)c45)ncc23)C1 (stereo not drawn) [Example 463, 1-(1-(7-(8-(difluoromethyl)naphthalen-1-yl)-8-fluoro-2-((hexahydro-1H-pyrrolizin-7a-yl)methoxy)pyrido[4,3-d]pyrimidin-4-yl)piperidin-3-yl)methanesulfonamide]
9 | 986 | 469 | 513 | – | – | 507 | 355 | 459 | 661 | O=C1NC(=O)C2(CCCN(c3nc(OCC45CCCN4CCC5)nc4c(F)c(-c5cccc6cccc(C(F)F)c56)ncc34)C2)N1 (stereo not drawn) [Example 464, 7-(7-(8-(difluoromethyl)naphthalen-1-yl)-8-fluoro-2-((hexahydro-1H-pyrrolizin-7a-yl)methoxy)pyrido[4,3-d]pyrimidin-4-yl)-1,3,7-triazaspiro[4.5]decane-2,4-dione]
10 | 2320 | 1660 | 2260 | – | – | 3310 | 2140 | 2310 | 2680 | O=C1CC2(CCCN(c3nc(OCC45CCCN4CCC5)nc4c(F)c(-c5cccc6cccc(C(F)F)c56)ncc34)C2)N1 (stereo not drawn) [Example 466, 6-(7-(8-(difluoromethyl)naphthalen-1-yl)-8-fluoro-2-((hexahydro-1H-pyrrolizin-7a-yl)methoxy)pyrido[4,3-d]pyrimidin-4-yl)-1,6-diazaspiro[3.5]nonan-2-one]
11 | 915 | 651 | 1020 | – | – | 968 | 1140 | 1110 | 1480 | O=C1CC2(CCCN(c3nc(OCC45CCCN4CCC5)nc4c(F)c(-c5cccc6cccc(C(F)(F)F)c56)ncc34)C2)N1 (stereo not drawn) [Example 467, 6-(8-fluoro-2-((hexahydro-1H-pyrrolizin-7a-yl)methoxy)-7-(8-(trifluoromethyl)naphthalen-1-yl)pyrido[4,3-d]pyrimidin-4-yl)-1,6-diazaspiro[3.5]nonan-2-one]
12 | 2880 | 2310 | 2900 | – | – | 2810 | 2480 | 2410 | 3020 | O=C1CC2(CCCN(c3nc(OCC45CCCN4CCC5)nc4c(F)c(-c5cccc6cccc(CF)c56)ncc34)C2)N1 (stereo not drawn) [Example 468, 6-(8-fluoro-7-(8-(fluoromethyl)naphthalen-1-yl)-2-((hexahydro-1H-pyrrolizin-7a-yl)methoxy)pyrido[4,3-d]pyrimidin-4-yl)-1,6-diazaspiro[3.5]nonan-2-one]
13 | 127 | 105 | 149 | – | – | 180 | 146 | 135 | 196 | CSc1cccc2cccc(-c3ncc4c(N5CCCC6(CC(=O)N6)C5)nc(OCC56CCCN5CCC6)nc4c3F)c12 (stereo not drawn) [Example 469, 6-(8-fluoro-2-((hexahydro-1H-pyrrolizin-7a-yl)methoxy)-7-(8-(methylthio)naphthalen-1-yl)pyrido[4,3-d]pyrimidin-4-yl)-1,6-diazaspiro[3.5]nonan-2-one]
14 | 406 | 355 | 503 | – | – | 347 | 341 | 348 | 475 | O=C1CC2(CCCN(c3nc(OCC45CCCN4CCC5)nc4c(F)c(-c5cccc6cccc(CCF)c56)ncc34)C2)N1 (stereo not drawn) [Example 470, 6-(8-fluoro-7-(8-(2-fluoroethyl)naphthalen-1-yl)-2-((hexahydro-1H-pyrrolizin-7a-yl)methoxy)pyrido[4,3-d]pyrimidin-4-yl)-1,6-diazaspiro[3.5]nonan-2-one]
15 | 309 | 427 | 1070 | – | – | 332 | 391 | 459 | 362 | Cc1cc2[nH]ncc2c(-c2ncc3c(N4CCCC(C)(O)C4)nc(OC[C@@]45CCCN4C[C@H](F)C5)nc3c2F)c1C (stereo partly drawn) [Example 471]
16 | 8600 | 1750 | 3630 | – | – | 2950 | 3450 | 2390 | 6170 | Fc1c(-c2cccc3cccc(Cl)c23)ncc2c(NCCCOC(F)F)nc(OCC34CCCN3CCC4)nc12 [Example 474, 7-(8-chloronaphthalen-1-yl)-N-(3-(difluoromethoxy)propyl)-8-fluoro-2-((tetrahydro-1H-pyrrolizin-7a(5H)-yl)methoxy)pyrido[4,3-d]pyrimidin-4-amine]
17 | 8550 | 1460 | 2620 | – | – | 3680 | 2750 | 2750 | 4600 | NC(=O)C(O)CNc1nc(OCC23CCCN2CCC3)nc2c(F)c(-c3cccc4cccc(Cl)c34)ncc12 (stereo not drawn) [Example 475, 3-((7-(8-chloronaphthalen-1-yl)-8-fluoro-2-((tetrahydro-1H-pyrrolizin-7a(5H)-yl)methoxy)pyrido[4,3-d]pyrimidin-4-yl)amino)-2-hydroxypropanamide]
18 | – | – | – | 9320 | 5690 | – | – | – | – | O=S1(=O)NC[C@@]2(CCCN(c3nc(OC[C@@]45CCCN4C[C@H](F)C5)nc4c(F)c(-c5cc(O)cc6ccc(F)c(Cl)c56)ncc34)C2)N1 [Example 516, (S)-7-(7-(8-chloro-7-fluoro-3-hydroxynaphthalen-1-yl)-8-fluoro-2-(((2R,7aS)-2-fluorotetrahydro-1H-pyrrolizin-7a(5H)-yl)methoxy)pyrido[4,3-d]pyrimidin-4-yl)-2-thia-1,3,7-triazaspiro [4.5]decane2,2-dioxide]
